Results on 1 compound are retold here after publication PMC3841297 (Chemical biology & drug design, 2013).

The assay addresses SrtA (SrtAΔN59, residue 60–206) (Staphylococcus aureus, UniProt Q2FV99). Put plainly: SrtA enzymatic inhibition, FRET assay. The format is biochemical.

The IC50 is the midpoint of a concentration-inhibition curve. Low readings indicate inhibition by little substance, high ones a need for much substance. In the case of `O=C(O)COc1ccccc1C1Nc2cccc3cccc(c23)N1` [Compound 1, (2-(2,3-dihydro-1H-perimidin-2-yl)-phenoxy)-acetic acid], the IC50 stood at 47.2 ± 5.9 µM.
